Assay: Pharmacokinetics and oral absorption in Beagle dogs
Conditions: for Mean Plasma D-isomer: Beagle dogs N=10, oral capsule by gastric placement, 1 mg D-isomer
Method: Ten (N=10) Beagle dogs were enrolled in a pharmacokinetic study to examine the oral absorption of 1 tablet of the pure L-isomer tablet formulation (batch 116I0604), 1 mg of the D-isomer admixed with 99 mg microcrystalline cellulose, and 4 tablets of the racemic tablet formulation (batch 157I0907). Each formulation was encapsulated in a hard gelatin capsule and administered by direct gastric placement. Dosing of each formulation was separated by a 7 day washout period. The mean body weight of the ten dogs was 11.3±1.7 (SD) kilograms.
For pharmacokinetic analysis, venous blood samples with EDTA as anticoagulant were taken before each dosing and at 0.5, 1, 1.5, 2, 3, 6, 9 and 12 hours after each dosing. Samples were centrifuged, and the plasma collected and frozen for analysis. There was no urine sampling in this study. Aminopterin in plasma samples was quantitated by an achiral LC/MS assay (Advion Biosciences, Ithaca, N.Y.). The lower limit of quantitation (LLOQ) of the assay was 0.5 ng/ml or 1.2 nM. The amount of L-isomer and D-isomer in plasma samples from animals dosed with the racemate was determined using a chiral LC/MS assay.

[1] = Beagle dogs, oral, isomers given separately

Row | Structure (SMILES) | Mean Plasma D-isomer (collection time 0.0 hr (before dosing)) [µM] | Mean Plasma D-isomer (collection time 0.5 hr) [µM] | Mean Plasma D-isomer (collection time 1.0 hr) [µM] | Mean Plasma D-isomer (collection time 1.5 hr) [µM] | Mean Plasma D-isomer (collection time 2.0 hr) [µM] | Mean Plasma D-isomer (collection time 3.0 hr) [µM] | Mean Plasma D-isomer (collection time 6.0 hr) [µM] | Mean Plasma D-isomer (collection time 9.0 hr) [µM] | Mean Plasma D-isomer (collection time 12.0 hr) [µM] | oral absorption when given separately [1] | systemic exposure relative to that of the L-isomer (AUC ratio) [1]
1 | Nc1nc(N)c2nc(CNc3ccc(C(=O)N[C@H](CCC(=O)O)C(=O)O)cc3)cnc2n1 (single isomer, unassigned) [D-isomer] | 0.0000 | 0.0050 | 0.0117 | 0.0150 | 0.0152 | 0.0106 | 0.0034 | 0.0023 | 0.0026 | efficiently absorbed | approximately 30%
2 | Nc1nc(N)c2nc(CNc3ccc(C(=O)N[C@@H](CCC(=O)O)C(=O)O)cc3)cnc2n1 [L-isomer] | – | – | – | – | – | – | – | – | – | efficiently absorbed | –

— US8349837B2, “Pharmaceutical composition comprising racemic aminopterin” (Aminopterin, LLC, priority 2009, dated 2013)
